Earlier results as cited in patent US8476249B2, “Method of treating thrombocytopenia” (GlaxoSmithKline LLC, priority 2010, dated 2013).

Tests used:
[1] = specifically in the portal vein system
[2] = in vivo

Row | thrombotic events [1] | Compound | occurrence of portal vein thrombosis [2]
1 | associated with thrombotic events | CC1=NN(c2ccc(C)c(C)c2)C(=O)/C1=N\Nc1cccc(-c2cccc(C(=O)O)c2)c1O.NCCO.NCCO [eltrombopag, 3′-[(2Z)-[1-(3,4-dimethylphenyl)-1,5-dihydro-3-methyl-5-oxo-4H-pyrazol-4-ylidene]hydrazino]-2′-hydroxy-[1,1′-biphenyl]-3-carboxylic acid bis-(monoethanolamine)] | –
2 | – | enoxaparin | reducing the occurrence of portal vein thrombosis
